Test results as given in ChEMBL document CHEMBL1201862, “PubChem BioAssay data set” (2004).
The source made the active and inactive calls.

How the values were obtained:
[1] = target: Beta-2 adrenergic receptor (Homo sapiens, UniProt P07550); test: ADRB2 activation measured by internalization – cell-based, FAP fluorogen, flow cytometry, cherry pick 1, dose response (AID 588763); assay type: functional
[2] = target: Trypsin (Sus scrofa, UniProt P00761); test: trypsin protease activity blockade – biochemical, quenched peptide fluorescence, cherry-pick, selectivity assay for Rce1 protease inhibitor project, dose response (AID 488789)
[3] = target: CAAX prenyl protease 2 (Saccharomyces cerevisiae S288c, UniProt Q03530); assay type: biochemical
[4] = target: CAAX prenyl protease 2 (Homo sapiens, UniProt Q9Y256); test: inhibition of Ras-converting CAAX protease Rce1 – biochemical, yeast membranes, quenched-peptide fluorescence, cherry-pick, dose response (AID 588849)
[5] = target: Cytochrome P450 2D6 (Homo sapiens, UniProt P10635);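 note: CYP2D6 member of a cytochrome P450 panel assay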
[6] = target: Nucleotide-binding oligomerization domain-containing protein 2 (Homo sapiens, UniProt Q9HC29); test: inhibition of NOD2-driven NF-kB reporter – cell-based, luminescence, uHTS, HEK293 (AID 1566); assay type: functional
[7] = target: Nonstructural protein 1 (Influenza A virus, UniProt Q194T2); assay type: functional, Influenza A virus (A/California/07/2009(H1N1))
[8] = test system: HEK293; test: NOD2 signaling inhibitors in MDP-stimulated cells, cell-based, uHTS, luminescence (AID 2001); assay type: functional; details: Homo sapiens
[9] = test system: HEK293; test: inhibition of NOD1-driven NF-kB reporter – cell-based, luminescence, uHTS, primary screen (AID 1578); assay type: functional; details: Homo sapiens
[10] = test system: HEK293; test: cells; assay type: functional, cell-based; details: Homo sapiens
[11] = test system: HEK293; test: cells; assay type: functional, cell-based; details: Homo sapiens; remark: listed apart in the source
[12] = test system: HEK293; test: cells; assay type: functional, cell-based; details: Homo sapiens; remark: listed apart in the source
[13] = Trypanosoma cruzi growth suppression in host cells – NIH3T3 host cells, beta-gal luminescence, confirmation (AID 2044); assay type: functional, cell-based;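 note: intracellular parasites grown in NIH/3T3 mouse fibroblasts as host cells; luminescent beta-galactosidase reporter signal from transgenic T. cruzi replicating inside host cells; inhibitors lower the luminescence signal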
[14] = Counterscreen for activators of the function of SWI/SNF related, matrix associated, actin dependent regulator of chromatin, subfamily a, member 2 (SMARCA2, BRM): Luminescence-based cell-based high throughput dose response assay to identify non-selective compounds using the VP16 reporter assay.; assay type: functional
[15] = test system: INS1; test: INS-1E survival protection against cytokine death – cell-based, luminescence, retest, dose response (AID 449756); assay type: functional; details: Rattus norvegicus;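 note: cell death triggered by IL-1 beta plus TNF-alpha plus IFN-gamma mixture; protective hits raise ATP signal compared with cytokine alone wells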
[16] = fluconazole-exposed Candida albicans growth modulators – fluorescence, retest, confirmation (AID 2467); assay type: functional, cell-based
[17] = target: T1, Microphthalmia-associated transcription factor (Homo sapiens, UniProt O75030); test: reducers of TRPM1 reporter luminescence, concentration series – cell-based, SK-MEL-5, cherry-picked, set 3, MITF inhibitor project, dose response (AID 493073); assay type: functional;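 note: SK-MEL-5 melanoma cells with luciferase driven by the MITF target TRPM1 promoter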
T1 sequence (O75030 whole entry): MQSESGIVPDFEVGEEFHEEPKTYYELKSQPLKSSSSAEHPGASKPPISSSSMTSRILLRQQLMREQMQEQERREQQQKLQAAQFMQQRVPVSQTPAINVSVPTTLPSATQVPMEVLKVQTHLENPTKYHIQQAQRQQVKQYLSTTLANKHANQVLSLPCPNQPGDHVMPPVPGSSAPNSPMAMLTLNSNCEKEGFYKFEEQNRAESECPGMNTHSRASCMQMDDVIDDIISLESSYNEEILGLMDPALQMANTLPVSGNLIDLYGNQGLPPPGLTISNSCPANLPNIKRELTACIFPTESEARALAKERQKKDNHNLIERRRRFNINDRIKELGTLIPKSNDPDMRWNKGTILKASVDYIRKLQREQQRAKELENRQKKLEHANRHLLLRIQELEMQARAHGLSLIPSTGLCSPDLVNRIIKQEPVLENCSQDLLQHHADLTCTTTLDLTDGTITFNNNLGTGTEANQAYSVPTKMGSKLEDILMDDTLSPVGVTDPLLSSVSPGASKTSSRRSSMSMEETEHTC

[18] = target: T2, DNA repair protein RAD52 homolog (Homo sapiens, UniProt P43351); assay type: functional, biochemical
T2 sequence (P43351 whole entry): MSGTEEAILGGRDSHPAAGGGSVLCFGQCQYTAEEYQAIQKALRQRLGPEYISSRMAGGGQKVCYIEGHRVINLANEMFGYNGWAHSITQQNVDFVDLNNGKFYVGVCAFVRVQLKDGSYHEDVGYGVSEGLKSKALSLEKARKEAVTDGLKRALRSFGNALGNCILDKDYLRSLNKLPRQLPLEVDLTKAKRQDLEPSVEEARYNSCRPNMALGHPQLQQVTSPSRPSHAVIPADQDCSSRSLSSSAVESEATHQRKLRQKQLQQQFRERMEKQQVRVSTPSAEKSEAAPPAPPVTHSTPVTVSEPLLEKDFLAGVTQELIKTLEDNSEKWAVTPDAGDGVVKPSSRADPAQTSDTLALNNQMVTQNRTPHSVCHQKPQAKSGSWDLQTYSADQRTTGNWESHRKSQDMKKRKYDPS

[19] = NIH-3T3 fibroblast cytotoxicity, dose response, cytotoxicity control, cell-based, fluorescence, Alamar Blue, secondary assay (AID 2327); assay type: functional;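 note: NIH-3T3 mouse fibroblasts cultured with fluconazole at 8 µg/mL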
[20] = target: SWI/SNF-related matrix-associated actin-dependent regulator of chromatin subfamily A member 2 (Homo sapiens, UniProt P51531); test: Luminescence-based cell-based high throughput dose response assay to identify activators of the function of SWI/SNF related, matrix associated, actin dependent regulator of chromatin, subfamily a, member 2 (SMARCA2, BRM).; assay type: functional
[21] = test system: A-375; test: proliferation inhibition in MITF-low A375 cells – cell-based, cherry-pick samples, set 2, counter-screen for MITF modulator project, dose response (AID 540335); assay type: functional; details: Homo sapiens
[22] = target: ATP-dependent molecular chaperone HSP82 (Candida albicans (strain WO-1) (Yeast), UniProt C4YTQ8); test: steroid-induced GRE reporter decrease in yeast – S. cerevisiae, luminescence, Hsp90 inhibitor project, dose response (AID 2400); assay type: functional, cell-based;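 note: beta-galactosidase luminescence from glucocorticoid response element reporter as proxy for Hsp90 function; inhibitor potency where signal loss means Hsp90 inhibition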
[23] = NIH3T3 cell viability loss – ATP luminescence, mouse fibroblasts, counter-screen, dose response (AID 2010); assay type: functional, cell-based;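 note: cells exposed to compound for about 90 hours before reading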
[24] = target: T3, Serine/threonine-protein phosphatase (Candida dubliniensis (strain CD36 / CBS 7987 / NCPF 3949 / NRRLY-17841) (Yeast), UniProt B9W6M3); test: blockers of CaCl2-induced CDRE-lacZ signaling – S. cerevisiae, luminescence, secondary, dose response (AID 2388); assay type: functional, cell-based;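 note: yeast reporter cells carrying a calcineurin-responsive lacZ construct stimulated with calcium chloride; luminescent beta-galactosidase reporter signal in whole cells rather than isolated phosphatase activity; potency for inhibition where a drop in reporter signal means calcineurin blockade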
T3 sequence (B9W6M3 whole entry): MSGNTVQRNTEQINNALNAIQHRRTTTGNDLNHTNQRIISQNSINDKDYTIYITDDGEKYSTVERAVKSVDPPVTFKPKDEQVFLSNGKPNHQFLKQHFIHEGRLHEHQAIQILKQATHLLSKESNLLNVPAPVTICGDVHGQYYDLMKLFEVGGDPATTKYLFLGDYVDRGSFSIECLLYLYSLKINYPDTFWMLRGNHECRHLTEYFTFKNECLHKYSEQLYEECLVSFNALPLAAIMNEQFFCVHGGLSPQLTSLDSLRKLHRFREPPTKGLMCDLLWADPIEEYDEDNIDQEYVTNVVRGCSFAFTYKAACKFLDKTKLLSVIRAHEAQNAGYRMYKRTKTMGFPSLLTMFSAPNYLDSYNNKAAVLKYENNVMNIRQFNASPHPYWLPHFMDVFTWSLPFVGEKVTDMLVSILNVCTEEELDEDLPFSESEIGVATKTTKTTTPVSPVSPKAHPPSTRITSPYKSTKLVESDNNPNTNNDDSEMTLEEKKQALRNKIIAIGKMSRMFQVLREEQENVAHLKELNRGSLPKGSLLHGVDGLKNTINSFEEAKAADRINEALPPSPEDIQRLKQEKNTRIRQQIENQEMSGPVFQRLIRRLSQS

[25] = test system: Escherichia coli; test: microbe, parasite or virus in culture
[26] = test system: Escherichia coli; test: microbe, parasite or virus in culture; remark: listed apart in the source

SWI/SNF-related matrix-associated actin-dependent regulator of chromatin subfamily A member 2, sequence (P51531 whole entry): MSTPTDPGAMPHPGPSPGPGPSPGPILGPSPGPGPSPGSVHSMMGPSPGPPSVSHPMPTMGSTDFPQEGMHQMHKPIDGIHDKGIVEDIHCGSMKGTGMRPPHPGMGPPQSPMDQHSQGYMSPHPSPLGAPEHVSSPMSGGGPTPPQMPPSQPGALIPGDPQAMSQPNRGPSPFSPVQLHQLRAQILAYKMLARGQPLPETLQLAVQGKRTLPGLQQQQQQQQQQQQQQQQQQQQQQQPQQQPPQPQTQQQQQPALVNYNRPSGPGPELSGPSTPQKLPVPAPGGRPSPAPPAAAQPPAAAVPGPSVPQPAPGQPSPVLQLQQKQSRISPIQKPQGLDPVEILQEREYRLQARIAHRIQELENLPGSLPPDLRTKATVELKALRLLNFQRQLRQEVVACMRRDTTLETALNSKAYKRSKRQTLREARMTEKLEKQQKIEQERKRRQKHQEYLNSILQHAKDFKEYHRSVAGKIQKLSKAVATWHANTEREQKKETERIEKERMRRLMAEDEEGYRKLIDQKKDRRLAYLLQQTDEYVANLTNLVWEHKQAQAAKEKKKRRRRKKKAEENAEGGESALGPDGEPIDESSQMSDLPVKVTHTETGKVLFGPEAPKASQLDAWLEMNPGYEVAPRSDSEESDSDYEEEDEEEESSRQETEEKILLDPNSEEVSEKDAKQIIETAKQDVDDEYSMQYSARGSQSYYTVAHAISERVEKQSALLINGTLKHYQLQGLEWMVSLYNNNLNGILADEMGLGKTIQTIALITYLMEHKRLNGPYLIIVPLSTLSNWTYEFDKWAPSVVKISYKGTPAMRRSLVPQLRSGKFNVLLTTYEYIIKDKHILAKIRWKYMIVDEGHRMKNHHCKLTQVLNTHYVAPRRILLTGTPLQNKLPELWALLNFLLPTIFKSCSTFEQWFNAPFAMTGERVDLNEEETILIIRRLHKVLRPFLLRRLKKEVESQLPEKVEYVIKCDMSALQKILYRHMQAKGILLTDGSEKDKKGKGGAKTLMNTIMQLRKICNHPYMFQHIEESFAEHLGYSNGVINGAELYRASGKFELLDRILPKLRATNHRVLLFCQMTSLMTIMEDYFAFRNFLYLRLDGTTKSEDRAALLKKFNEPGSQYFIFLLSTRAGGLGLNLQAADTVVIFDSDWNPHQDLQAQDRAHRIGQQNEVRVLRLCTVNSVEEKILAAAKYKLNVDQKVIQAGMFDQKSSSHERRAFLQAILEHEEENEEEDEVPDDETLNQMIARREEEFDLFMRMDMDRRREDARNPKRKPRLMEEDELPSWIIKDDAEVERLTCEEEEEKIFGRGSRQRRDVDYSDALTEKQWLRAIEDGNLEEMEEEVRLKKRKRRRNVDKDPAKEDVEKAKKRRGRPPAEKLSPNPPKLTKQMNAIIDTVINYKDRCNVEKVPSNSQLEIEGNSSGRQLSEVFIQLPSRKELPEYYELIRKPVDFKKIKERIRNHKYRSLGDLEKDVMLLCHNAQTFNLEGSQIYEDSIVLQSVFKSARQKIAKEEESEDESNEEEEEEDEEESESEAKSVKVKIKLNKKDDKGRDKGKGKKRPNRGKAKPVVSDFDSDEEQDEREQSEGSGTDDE
Nonstructural protein 1, sequence (Q194T2 whole entry): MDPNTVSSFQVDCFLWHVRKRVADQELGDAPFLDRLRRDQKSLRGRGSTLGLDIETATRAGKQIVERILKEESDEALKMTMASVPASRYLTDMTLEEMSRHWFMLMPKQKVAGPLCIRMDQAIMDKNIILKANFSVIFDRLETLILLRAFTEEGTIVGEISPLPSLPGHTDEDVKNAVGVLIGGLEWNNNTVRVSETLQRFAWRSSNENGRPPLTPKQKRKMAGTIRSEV
Beta-2 adrenergic receptor, sequence (P07550 whole entry): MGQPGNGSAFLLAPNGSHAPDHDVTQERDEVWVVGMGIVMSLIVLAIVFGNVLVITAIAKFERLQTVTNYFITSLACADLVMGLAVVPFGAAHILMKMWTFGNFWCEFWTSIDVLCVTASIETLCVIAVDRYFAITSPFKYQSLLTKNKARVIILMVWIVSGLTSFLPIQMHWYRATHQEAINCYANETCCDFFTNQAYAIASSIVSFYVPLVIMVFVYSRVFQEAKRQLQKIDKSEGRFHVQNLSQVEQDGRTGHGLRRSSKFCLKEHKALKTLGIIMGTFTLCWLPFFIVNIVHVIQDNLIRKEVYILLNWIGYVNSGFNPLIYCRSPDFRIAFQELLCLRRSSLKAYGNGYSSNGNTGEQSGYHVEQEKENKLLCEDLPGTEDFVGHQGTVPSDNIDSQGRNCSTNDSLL
ATP-dependent molecular chaperone HSP82, sequence (C4YTQ8 whole entry): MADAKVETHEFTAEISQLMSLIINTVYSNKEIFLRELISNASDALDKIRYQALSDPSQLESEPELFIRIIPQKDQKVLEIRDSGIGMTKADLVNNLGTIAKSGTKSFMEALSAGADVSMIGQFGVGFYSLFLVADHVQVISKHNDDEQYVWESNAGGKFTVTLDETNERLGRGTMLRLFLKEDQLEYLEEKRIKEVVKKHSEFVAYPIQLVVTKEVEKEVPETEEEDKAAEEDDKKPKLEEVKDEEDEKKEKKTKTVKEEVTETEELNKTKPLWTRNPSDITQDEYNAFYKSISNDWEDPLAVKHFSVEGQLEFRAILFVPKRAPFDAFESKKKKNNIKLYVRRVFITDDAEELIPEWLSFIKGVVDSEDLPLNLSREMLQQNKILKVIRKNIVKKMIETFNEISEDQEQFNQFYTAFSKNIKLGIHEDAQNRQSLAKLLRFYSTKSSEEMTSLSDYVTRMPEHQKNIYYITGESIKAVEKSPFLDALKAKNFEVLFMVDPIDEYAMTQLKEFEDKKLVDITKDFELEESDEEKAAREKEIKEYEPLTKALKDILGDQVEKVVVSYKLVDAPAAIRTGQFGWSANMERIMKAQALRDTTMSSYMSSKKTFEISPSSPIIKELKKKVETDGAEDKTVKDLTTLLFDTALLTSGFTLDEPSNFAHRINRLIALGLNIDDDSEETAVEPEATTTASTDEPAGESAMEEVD
Cytochrome P450 2D6, sequence (P10635 whole entry, the tested form may be a part): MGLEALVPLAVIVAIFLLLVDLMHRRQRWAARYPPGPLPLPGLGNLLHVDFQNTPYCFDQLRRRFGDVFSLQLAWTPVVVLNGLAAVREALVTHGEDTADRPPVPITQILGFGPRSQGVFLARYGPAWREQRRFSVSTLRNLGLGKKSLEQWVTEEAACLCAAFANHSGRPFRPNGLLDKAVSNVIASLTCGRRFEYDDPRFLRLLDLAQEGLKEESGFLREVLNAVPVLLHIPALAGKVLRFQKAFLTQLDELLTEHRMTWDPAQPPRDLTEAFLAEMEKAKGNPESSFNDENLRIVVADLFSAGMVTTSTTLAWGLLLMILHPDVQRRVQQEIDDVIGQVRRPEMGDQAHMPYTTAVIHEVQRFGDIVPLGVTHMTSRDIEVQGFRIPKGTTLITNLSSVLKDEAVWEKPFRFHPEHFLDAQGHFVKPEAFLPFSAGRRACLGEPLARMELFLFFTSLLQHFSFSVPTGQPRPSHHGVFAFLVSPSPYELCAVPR
Trypsin, sequence (P00761 whole entry): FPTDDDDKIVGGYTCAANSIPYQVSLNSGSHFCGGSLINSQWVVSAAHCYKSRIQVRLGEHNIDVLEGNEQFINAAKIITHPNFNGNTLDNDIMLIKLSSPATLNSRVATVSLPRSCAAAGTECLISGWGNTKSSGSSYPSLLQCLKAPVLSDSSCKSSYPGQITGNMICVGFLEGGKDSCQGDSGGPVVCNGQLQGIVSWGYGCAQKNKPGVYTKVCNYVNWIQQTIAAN
CAAX prenyl protease 2 (Homo sapiens, UniProt Q9Y256), sequence (Q9Y256 whole entry): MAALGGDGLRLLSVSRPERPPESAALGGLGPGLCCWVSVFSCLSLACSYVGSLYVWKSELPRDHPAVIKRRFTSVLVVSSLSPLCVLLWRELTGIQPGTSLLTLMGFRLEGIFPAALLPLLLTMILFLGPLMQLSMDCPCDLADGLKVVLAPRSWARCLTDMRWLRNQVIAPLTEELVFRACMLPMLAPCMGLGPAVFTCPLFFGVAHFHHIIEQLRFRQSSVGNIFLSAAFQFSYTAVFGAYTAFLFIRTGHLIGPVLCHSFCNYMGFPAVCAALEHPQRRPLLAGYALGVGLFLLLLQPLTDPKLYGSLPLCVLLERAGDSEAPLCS
CAAX prenyl protease 2 (Saccharomyces cerevisiae S288c, UniProt Q03530), sequence (Q03530 whole entry): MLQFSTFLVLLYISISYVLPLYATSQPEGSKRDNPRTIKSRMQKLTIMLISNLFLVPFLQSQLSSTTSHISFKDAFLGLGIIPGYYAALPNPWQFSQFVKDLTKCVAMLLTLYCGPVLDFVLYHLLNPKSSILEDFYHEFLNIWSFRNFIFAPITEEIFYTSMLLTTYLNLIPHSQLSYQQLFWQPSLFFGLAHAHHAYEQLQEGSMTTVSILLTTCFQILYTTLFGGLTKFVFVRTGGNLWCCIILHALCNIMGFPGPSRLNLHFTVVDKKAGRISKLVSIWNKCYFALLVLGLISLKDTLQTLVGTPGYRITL

Cc1ccc(NC(=O)c2ccc(N3CCOCC3)c([N+](=O)[O-])c2)cc1S(=O)(=O)N1CCOCC1
inactive: EC50 [1] 10.1 µM

COc1ccc(C[C@H]2c3cc(O)c(OC)cc3CC[N+]2(C)[O-])cc1O (stereo partly specified)
active: AC50 [2] 13.9 µM | AC50 [3] 7.82 µM | AC50 [4] 2.8 µM

C#CCCCO/N=C1/[C@H]2O[C@@H]2[C@@H](O)[C@H]2[C@H]1CCn1c(=O)n(C)c(=O)n12
inconclusive: AC50 [5]

CCCn1c(C)cc(C(=O)COc2ccc(C)nc2[N+](=O)[O-])c1C
inactive: IC50 [8] > 20 µM | EC50 [9] > 20 µM | IC50 [10] > 20 µM | IC50 [11] > 20 µM
active: EC50 [6] 7.64 µM | IC50 [7] > 100 µM | IC50 [12] 3.81 µM

CC(=O)Nc1ccc(Nc2c3ccccc3nc3ccccc23)cc1
inactive: EC50 [14] > 91.1 µM | EC50 [20] > 91.1 µM | EC50 [22] > 150 µM | EC50 [24] > 180 µM
active: EC50 [13] 0.556 µM | AC50 [15] 3.71 µM | EC50 [16] 1.32 µM | AC50 [17] 4.9 µM | AC50 [18] 2.21 µM | EC50 [19] 10.5 µM | AC50 [21] 13.8 µM | EC50 [23] 0.536 µM

COC(=O)c1cc(C(=O)Nc2cc(C)ccn2)cc([N+](=O)[O-])c1
active: AC50 [25] 132 µM | AC50 [26] 63.9 µM
